Patent US11021457B2, “Class of isoindolone-imide ring-1,3-dione-2-ene compounds, composition and use thereof” (WIGEN BIOMEDICINE TECHNOLOGY (SHANGHAI) CO., LTD., priority 2017, dated 2021)

Tests used:
Format in all cases: cell-based
[1] = system: A549; assay: Inhibition of tumor cell proliferation, CellTiter-Glo, A549; conditions: compound concentration 50 μM, 72 hours; for cell survival rate (% of control) at 50 µM: Homo sapiens, A549, read-out: Inhibitory activity against proliferation (cell survival rate) A549
Summary of the method: (§1)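 Cells seeded at 2000-10000 per well, treated immediately (suspension) or after adherence (adherent) and cultured at 37° C, 5% CO2. Viability read by CellTiter-Glo at 72 h as blank-corrected survival rate vs control. Scored at 50 μM compound: survival 60-<90% +, >30-60% ++, ≤30% +++.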

[2] = system: K562; assay: Inhibition of tumor cell proliferation, CellTiter-Glo, K562; conditions: compound concentration 50 μM, 72 hours; for cell survival rate (%) at 50 µM: Homo sapiens, K562, read-out: Inhibitory activity against proliferation (cell survival rate) K562
Summary of the method: as §1

[3] = system: SU-DHL6; assay: Inhibition of tumor cell proliferation, CellTiter-Glo, SU-DHL6; conditions: compound concentration 50 μM, 72 hours; for cell survival rate (% of control) at 50 µM: Homo sapiens, SU-DHL-6, read-out: Inhibitory activity against proliferation (cell survival rate) SU-DHL6
Summary of the method: as §1

[4] = system: BxPC-3; assay: Inhibition of tumor cell proliferation, CellTiter-Glo, BxPC-3; conditions: compound concentration 50 μM, 72 hours; for cell survival rate (%) at 50 µM: Homo sapiens, BXPC-3, read-out: Inhibitory activity against proliferation (cell survival rate) BxPC-3
Summary of the method: as §1

[5] = system: MDA-MB-453; assay: Inhibition of tumor cell proliferation, CellTiter-Glo, MDA-MB-453; conditions: compound concentration 50 μM, 72 hours; for cell survival rate (%) at 50 µM: Homo sapiens, MDA-MB-453, read-out: Inhibitory activity against proliferation (cell survival rate) MDA-MB-453
Summary of the method: as §1

[6] = system: RPMI-8226; assay: Inhibition of tumor cell proliferation, CellTiter-Glo, RPMI-8226; conditions: compound concentration 50 μM, 72 hours; for cell survival rate (% of control) at 50 µM: Homo sapiens, RPMI-8226, read-out: Inhibitory activity against proliferation (cell survival rate) RPMI-8226
Summary of the method: as §1

SMILES	cell survival rate (% of control) at 50 µM [1]	cell survival rate (%) at 50 µM [2]	cell survival rate (% of control) at 50 µM [3]	cell survival rate (%) at 50 µM [4]	cell survival rate (%) at 50 µM [5]	cell survival rate (% of control) at 50 µM [6]	Inhibitory activity against proliferation (cell survival rate) A549 [1]	Inhibitory activity against proliferation (cell survival rate) K562 [2]	Inhibitory activity against proliferation (cell survival rate) SU-DHL6 [3]	Inhibitory activity against proliferation (cell survival rate) BxPC-3 [4]	Inhibitory activity against proliferation (cell survival rate) MDA-MB-453 [5]	Inhibitory activity against proliferation (cell survival rate) RPMI-8226 [6]
O=C1CCC(N2Cc3c(N/C=C4\C(=O)CC(c5ccccc5)OC4=O)cccc3C2=O)C(=O)N1 (stereo not drawn) [Compound 112]	60 to 90%	30 to 60%	60 to 90%	30 to 60%	30 to 60%	30 to 60%	–	–	–	–	–	–
O=C1CCC(N2Cc3c(NC=C4C(=O)NC(c5ccccc5)NC4=O)cccc3C2=O)C(=O)N1 (stereo not drawn) [Compound 115]	30 to 60%	30 to 60%	30 to 60%	60 to 90%	≤ 30%	60 to 90%	–	–	–	–	–	–
CC(C)Cn1cccc1C1CC(=O)C(=CNc2cccc3c2CN(C2CCC(=O)NC2=O)C3=O)C(=O)C1 (stereo not drawn) [Compound 116]	–	–	–	–	–	–	++ (30<survival rate (%)≤60)	++ (30<survival rate (%)≤60)	+ (60≤survival rate (%)<90)	++ (30<survival rate (%)≤60)	++ (30<survival rate (%)≤60)	++ (30<survival rate (%)≤60)
O=C1CCC(N2Cc3c(NC=C4C(=O)CC(c5ccc(-c6ccncc6)cc5)CC4=O)cccc3C2=O)C(=O)N1 (stereo not drawn) [Compound 117]	–	–	–	–	–	–	+ (60≤survival rate (%)<90)	++ (30<survival rate (%)≤60)	+ (60≤survival rate (%)<90)	+ (60≤survival rate (%)<90)	+ (60≤survival rate (%)<90)	+++ (survival rate (%)≤30)
O=C1CCC(N2Cc3c(NC=C4C(=O)CC(COc5ccccc5)CC4=O)cccc3C2=O)C(=O)N1 (stereo not drawn) [Compound 118]	–	–	–	–	–	–	+ (60≤survival rate (%)<90)	++ (30<survival rate (%)≤60)	+ (60≤survival rate (%)<90)	+ (60≤survival rate (%)<90)	+ (60≤survival rate (%)<90)	+ (60≤survival rate (%)<90)
O=C1CCC(N2Cc3c(NC=C4C(=O)CN(c5ccccc5)CC4=O)cccc3C2=O)C(=O)N1 (stereo not drawn) [Compound 119]	60 to 90%	30 to 60%	30 to 60%	30 to 60%	30 to 60%	30 to 60%	–	–	–	–	–	–
O=C1CCC(N2Cc3c(NC=C4C(=O)CC(/C=C/c5ccccc5)CC4=O)cccc3C2=O)C(=O)N1 (stereo not drawn) [Compound 120]	–	–	–	–	–	–	+ (60≤survival rate (%)<90)	++ (30<survival rate (%)≤60)	++ (30<survival rate (%)≤60)	+ (60≤survival rate (%)<90)	++ (30<survival rate (%)≤60)	++ (30<survival rate (%)≤60)
O=C1CCC(N2Cc3c(N/C=C4\C(=O)CC(Cc5ccccc5)C4=O)cccc3C2=O)C(=O)N1 (stereo not drawn) [Compound 121]	60 to 90%	30 to 60%	≤ 30%	60 to 90%	30 to 60%	≤ 30%	–	–	–	–	–	–
O=C1CCC(N2Cc3c(N/C=C4\C(=O)CCC(c5ccccc5)CC4=O)cccc3C2=O)C(=O)N1 (stereo not drawn) [Compound 124]	60 to 90%	60 to 90%	60 to 90%	30 to 60%	≤ 30%	60 to 90%	–	–	–	–	–	–
O=C1CCC(N2C(=O)c3cccc(OCCOCCOCCOCCN4CCN(CCNC=C5C(=O)CC(c6ccccc6)CC5=O)CC4)c3C2=O)C(=O)N1 (stereo not drawn) [Compound 125]	–	–	–	–	–	–	+ (60≤survival rate (%)<90)	+ (60≤survival rate (%)<90)	+++ (survival rate (%)≤30)	++ (30<survival rate (%)≤60)	+++ (survival rate (%)≤30)	+++ (survival rate (%)≤30)
O=C1CCC(N2Cc3c(N/C=C4\C(=O)CC(c5ccccc5)NC4=O)cccc3C2=O)C(=O)N1 (stereo not drawn) [Compound 126]	60 to 90%	60 to 90%	60 to 90%	30 to 60%	60 to 90%	≤ 30%	–	–	–	–	–	–
CC1C(=O)/C(=C/Nc2cccc3c2CN(C2CCC(=O)NC2=O)C3=O)C(=O)CC1c1ccccc1 (stereo not drawn) [Compound 127]	60 to 90%	60 to 90%	≤ 30%	60 to 90%	60 to 90%	60 to 90%	–	–	–	–	–	–
O=C1CCC(N2Cc3c(NC=C4C(=O)CC(c5ncnc6sccc56)CC4=O)cccc3C2=O)C(=O)N1 (stereo not drawn) [Compound 130]	–	–	–	–	–	–	+++ (survival rate (%)≤30)	++ (30<survival rate (%)≤60)	+++ (survival rate (%)≤30)	+ (60≤survival rate (%)<90)	+++ (survival rate (%)≤30)	++ (30<survival rate (%)≤60)
O=C1CCC(N2Cc3c(NCCOCCOCCOCCN4CCN(CCNC=C5C(=O)CC(c6ccccc6)CC5=O)CC4)cccc3C2=O)C(=O)N1 (stereo not drawn) [Compound 133]	–	–	–	–	–	–	+ (60≤survival rate (%)<90)	++ (30<survival rate (%)≤60)	+ (60≤survival rate (%)<90)	++ (30<survival rate (%)≤60)	+ (60≤survival rate (%)<90)	+ (60≤survival rate (%)<90)
CCOC(=O)C1CC(=O)C(=CNc2cccc3c2CN(C2CCC(=O)NC2=O)C3=O)C(=O)C1 (stereo not drawn) [Compound 134]	–	–	–	–	–	–	+ (60≤survival rate (%)<90)	+ (60≤survival rate (%)<90)	+ (60≤survival rate (%)<90)	++ (30<survival rate (%)≤60)	+++ (survival rate (%)≤30)	+ (60≤survival rate (%)<90)
O=C1CCC(N2Cc3c(NC=C4C(=O)CC(C(=O)Nc5ccc(Cl)cc5)CC4=O)cccc3C2=O)C(=O)N1 (stereo not drawn) [Compound 135]	–	–	–	–	–	–	+++ (survival rate (%)≤30)	++ (30<survival rate (%)≤60)	+++ (survival rate (%)≤30)	+ (60≤survival rate (%)<90)	+++ (survival rate (%)≤30)	++ (30<survival rate (%)≤60)
